The text below walks through data of patent publication US20060058312A1, “Stabilized aqueous preparation for injection” (priority 2004, published 2006).

The nature of data set [1]: Change of pH value of the aqueous solution during storage. Particulars: added to aqueous solution of the calcium salt, pH 6 to 7, during storage. Format: physicochemical.
Data set [2] can be described thus: Transmittance and coloring of the aqueous solution during storage. In kind it is physicochemical. Particulars: added to aqueous solution of the calcium salt, during storage. The text has this:
The suppressing effect can be attained by the action of ascorbic acid which has been stabilized by sodium pyrosulfite.

Take `O=C1O[C@H]([C@@H](O)CO)C(O)=C1O` [ascorbic acid]: in data set [1], the “suppression of the change of the pH value to the acid region” value was “effectively be suppressed”. In addition, in data set [2], the “suppression of the lowering of the transmittance and the coloring” value was “effectively be suppressed”.
